From patent US10647959B2, “Cell-friendly inverse opal hydrogels for cell encapsulation, drug and protein delivery, and functional nanoparticle encapsulation” (President and Fellows of Harvard College, priority 2011, dated 2020) come the findings set out here.

This data set relates to Mouse mesenchymal stem cells (MSCs). The following applies: 50 mM EDTA solution, up to 3 h incubation, fluorescent images (FIG. 5a). The protocol:
Subsequently, the viability of cells was measured with a live/dead cell assay by using calcein AM and ethidium homodimer-1.

Turning to `O=C(O)CN(CCN(CC(=O)O)CC(=O)O)CC(=O)O` [EDTA, ethylenediaminetetraacetic acid], the “toxicity of the EDTA solution to the cells” value is given as “no significant toxicity”.
